Laboratory results taken from PMC4841536, “Characterization of the Anti-HCV Activities of the New Cyclophilin Inhibitor STG-175” (PLoS ONE, 2016).

Assays:
[1] = alamarBlue cytotoxicity (CC50), GT1a replicon cell line; details: human
Description: The anti-HCV activity of STG-175 was conducted using a panel of luciferase reporter replicon cell lines including GT1a, GT1b, GT2a, GT3a and GT4a as we described previously. The GT1a subgenomic renilla luciferase reporter replicon H77 RLucP (7) was supplied by Dr. Delaney. The GT1b subgenomic firefly luciferase reporter replicon pFK-I389/NS3-3’ [29] was supplied by Dr. Bartenschlager. The GT1B subgenomic NS3, NS5A and NS5B mutants were created via homologous recombination using the In-Fusion HD Cloning kit (Clontech) as we described previously. The GT2a genomic luciferase reporter replicon Luc-Neo-JFH-1 was generated as previously. The plasmid pFK-Luc-JFH1 was supplied from Drs. […] The CellTiter-Fluor™ Cell Viability Assay is a non-lytic fluorescence assay, which measures the number of live cells. […] Luciferase activity was determined using the Luciferase Assay System (Promega) in a Berthold luminometer. […] Viable cells continuously convert resazurin to resorufin, increasing the overall fluorescence and color of the media surrounding cells.
Fig 2 Anti-HCV activities of STG-175 among GTs. […] Luciferase activity was determined using the Luciferase Assay System in a Berthold luminometer. […] Data are expressed as mean of relative light units and calculated EC50s are presented. […]

[2] = test system: HIV-1 (JR-CSF) in activated PBMCs; experiment: Mono-infection, HIV-1 capsid/p24 ELISA; type: cell-based; details: added together with virus, 12 days
Source text: (§1) For mono-infections: a) human hepatoma Huh7.5.1 cells were infected with HCV (JFH-1) and viral replication was quantified by HCV core ELISA (Ortho HCV antigen ELISA kit; Ortho Clinical Diagnostics, Waco Chemicals, Inc. or HCV Core ELISA, XpressBio); b) sodium-taurocholate co-transporting polypeptide (NTCP)-positive Huh7 cells were infected with hepatitis B virus (HBV) AD38 (produced from HepAD38 cells) and viral replication was quantified by HBV HBeAg ELISA; and c) human (peripheral blood monocytic cells (PBMCs) were infected with HIV-1 (JR-CSF) and viral replication was quantified by HIV-1 capsid/p24 ELISA. PBMCs were isolated as described previously. The Scripps Research Institute Normal Blood Donor Service (TSRI NBDS) provides TSRI investigators who have Human Subjects Committee-approved protocols with a source of normal blood for their research. Donors are assured of a controlled clinical setting for their blood to be drawn by licensed phlebotomists, and investigators are assured that the donors whose specimens they obtain through the service have been screened upon entry into the program and annually thereafter for a CBC, Hepatitis B and C and HIV-1. Hemoglobin determinations at every donation protect the donor from phlebotomy-induced anemia. […]

[3] = test system: HBV AD38 in NTCP-Huh7 cells; experiment: Mono-infection, HBV HBeAg ELISA; type: cell-based, hepatitis B virus; details: 0.5 and 5 μM, added together with virus, 12 days
Source text: as §1

Question: With CC=CCC(C)C(O)C1C(=O)NC(CC)C(=O)N(C)C(CSCCCCO)C(=O)N(C)C(CC(C)(C)O)C(=O)NC(C(C)C)C(=O)N(C)C(CC(C)C)C(=O)NC(C)C(=O)NC(C)C(=O)N(C)C(CC(C)C)C(=O)N(C)C(CC(C)C)C(=O)N(C)C(C(C)C)C(=O)N1C (stereo not shown) [STG-175] as the compound, how does the CC50 at 72 h [1] read?
Answer: The CC50 at 72 h was greater than 10 µM.

Question: What about the “HIV-1 infection (HIV-1 capsid ELISA)” value ([2]; 0.5 μM) of the same compound?
Answer: Its value is “significantly decreased infection”.

Question: And the “HIV-1 infection (HIV-1 capsid ELISA)” value ([2]; 5 μM)?
Answer: The value was “fully blocked”.

Question: What about the “HBV infection (HBeAg ELISA)” value [3] of the same compound?
Answer: Its value is “significantly reduced”.
